Measurements as given in ChEMBL document CHEMBL1201862, “PubChem BioAssay data set” (2004).
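Step 1: Grow cells in 96-well plates. Step 2: Expose to compound for 48 hours at 5 concentrations. Step 3: Interpolate endpoints linearly; if unreached, use highest concentration. GI50 = concentration required for 50% inhibition of growth.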 The source made the active and inactive calls. Rule as the data show it: active = GI50 up to about 1.1 µM and inactive = higher.

What was measured:
Experiment in all cases: NCI tumour cell line growth inhibition, 48 h
SN12C = test system: SN12C
BT-549 = test system: BT-549
SNB-75 = test system: SNB-75
HL-60 = test system: HL-60
OVCAR-4 = test system: OVCAR-4
M14 = test system: M14
NCI-H522 = test system: NCI-H522
IGROV-1 = test system: IGROV-1
CAKI-1 = test system: CAKI-1
SF-295 = test system: SF-295
UO-31 = test system: UO-31
K562 = test system: K562
HT-29 = test system: HT-29
HOP-62 = test system: HOP-62
SK-OV-3 = test system: SK-OV-3
Malme-3M = test system: Malme-3M
SNB-19 = test system: SNB-19
NCI-H23 = test system: NCI-H23
SF-539 = test system: SF-539
RPMI-8226 = test system: RPMI-8226

Measured: GI50

Cc1cc(C)cc(Nc2nnc3n2S(=O)(=O)c2cc(C#N)c(Cl)cc2S3)c1
inactive: SN12C 2.59 µM | BT-549 2.16 µM | SNB-75 2.32 µM | HL-60 1.68 µM | OVCAR-4 7.98 µM | M14 5.57 µM | NCI-H522 1.87 µM | CAKI-1 3.24 µM | SF-295 2.84 µM | UO-31 4.86 µM | K562 1.47 µM | HT-29 1.83 µM | HOP-62 2.77 µM | SK-OV-3 6.56 µM | Malme-3M 1.13 µM | SNB-19 6.78 µM | NCI-H23 1.77 µM | SF-539 1.89 µM
active: IGROV-1 0.505 µM

CSc1cc(Br)ccc1-n1c(C(=O)c2ccccc2)c(SC)n(-c2ccccc2)c1=O
inactive: SN12C > 100 µM | BT-549 > 100 µM | SNB-75 > 100 µM | OVCAR-4 > 100 µM | M14 96.2 µM | NCI-H522 54.6 µM | IGROV-1 > 100 µM | CAKI-1 > 100 µM | SF-295 84.5 µM | UO-31 67 µM | K562 4.81 µM | HT-29 52.8 µM | HOP-62 > 100 µM | SK-OV-3 > 100 µM | SNB-19 > 100 µM | NCI-H23 86.3 µM | SF-539 > 100 µM

COC(=O)C1(N2CCOCC2)CCC([C@@H](c2ccccc2)C(C)[N+](=O)[O-])C1 (stereo partly drawn)
inactive: SN12C > 100 µM | BT-549 16.8 µM | SNB-75 34.5 µM | RPMI-8226 13 µM | HL-60 85.3 µM | OVCAR-4 55.5 µM | M14 > 100 µM | SF-295 > 100 µM | UO-31 > 100 µM | K562 51.6 µM | HT-29 > 100 µM | HOP-62 > 100 µM | SK-OV-3 > 100 µM | Malme-3M > 100 µM | SNB-19 > 100 µM | NCI-H23 > 100 µM | SF-539 > 100 µM

COCCOC(=O)C(C)=[N+]=[N-]
inactive: SN12C > 100 µM | BT-549 > 100 µM | SNB-75 > 100 µM | RPMI-8226 > 100 µM | OVCAR-4 > 100 µM | NCI-H522 > 100 µM | IGROV-1 > 100 µM | CAKI-1 > 100 µM | SF-295 > 100 µM | UO-31 > 100 µM | K562 > 100 µM | HT-29 > 100 µM | HOP-62 > 100 µM | Malme-3M > 100 µM | SNB-19 > 100 µM | NCI-H23 > 100 µM

C/C(=N\NS(=O)(=O)c1ccc(C)cc1)c1ccccn1
inactive: BT-549 > 100 µM | SNB-75 > 100 µM | RPMI-8226 > 100 µM | HL-60 34 µM | OVCAR-4 68.2 µM | M14 34.6 µM | IGROV-1 47.2 µM | CAKI-1 36 µM | SF-295 43.3 µM | UO-31 40.5 µM | K562 83.8 µM | HT-29 44.5 µM | HOP-62 62.2 µM | SK-OV-3 55.3 µM | Malme-3M 60.3 µM | SNB-19 74.8 µM | NCI-H23 54.1 µM | SF-539 40.8 µM

CC1NC(=O)c2c(-c3ccccc3)nn(-c3ccccc3)c2NC1=O (stereo not drawn)
inactive: SN12C > 100 µM | BT-549 > 100 µM | SNB-75 > 100 µM | RPMI-8226 > 100 µM | OVCAR-4 > 100 µM | M14 > 100 µM | NCI-H522 > 100 µM | IGROV-1 > 100 µM | CAKI-1 > 100 µM | SF-295 > 100 µM | UO-31 > 100 µM | K562 > 100 µM | HT-29 > 100 µM | HOP-62 > 100 µM | SK-OV-3 > 100 µM | Malme-3M > 100 µM | SNB-19 > 100 µM | NCI-H23 > 100 µM

C[C@]12CC/C(=N\OCCN3CCCC3)C=C1CCC1C2CC[C@@]2(C)C1CC[C@]2(C)O (stereo partly drawn)
inactive: SN12C 7.13 µM | BT-549 10.2 µM | SNB-75 2.3 µM | RPMI-8226 2.83 µM | OVCAR-4 16.1 µM | M14 13.9 µM | NCI-H522 3.12 µM | IGROV-1 8.95 µM | CAKI-1 7.43 µM | SF-295 3.35 µM | UO-31 11.7 µM | K562 2.4 µM | HT-29 1.25 µM | HOP-62 13.1 µM | SK-OV-3 18.5 µM | Malme-3M 5.21 µM | SNB-19 14.7 µM | NCI-H23 12.2 µM | SF-539 6.62 µM

CC(=O)c1[nH]c(NCc2ccccc2)c(C(=S)Nc2ccccc2)c1N
inactive: SN12C 22.5 µM | BT-549 23.5 µM | SNB-75 > 100 µM | HL-60 5.32 µM | OVCAR-4 26.4 µM | M14 18.9 µM | CAKI-1 31 µM | SF-295 25.6 µM | K562 24.9 µM | HT-29 31.3 µM | HOP-62 19.9 µM | SK-OV-3 > 100 µM | Malme-3M 19.7 µM | SNB-19 34.3 µM | NCI-H23 38.8 µM | SF-539 1.88 µM
active: NCI-H522 0.0383 µM | IGROV-1 0.317 µM | UO-31 0.452 µM
